Among the data in PubChem BioAssay (NCI) are GI50 and TGI values, retold here.

Some test systems named below: 786-0 renal; HS 578T breast; NCI-H522 lung; OVCAR-8 ovarian; PC-3 prostate; SK-MEL-2 melanoma; SK-MEL-28 melanoma; SK-MEL-5 melanoma; SN12C renal; SR leukemia.
Assay in all cases: NCI-60 cell line screen, 48 h

Molecules are shown by their SMILES.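 Test compounds were applied to cells in 96-well plates for 48 hours at 5 doses. At the GI50, growth is halved. TGI: concentration producing complete growth inhibition.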 Bounds are passed on as bounds.

With `O=C1/C(=C\c2cccn2Cc2ccccc2)c2ccccc2N1c1c(Cl)cccc1Cl`, the GI50 in the test with 786-0 renal was greater than 100 µM; in the test on HS 578T breast, greater than 100 µM; with NCI-H522 lung, greater than 100 µM; with OVCAR-8 ovarian, greater than 100 µM; in the test with PC-3 prostate, 5.93 µM; in the test on SK-MEL-2 melanoma, 2.4 µM. Besides, the GI50 was greater than 100 µM with SK-MEL-28 melanoma, 3.02 µM in the test on SK-MEL-5 melanoma, greater than 100 µM in the test on SN12C renal and greater than 73.4 µM in the test on SR leukemia. For the same compound, the TGI in the test on 786-0 renal was greater than 100 µM; in the test on HS 578T breast it was greater than 100 µM; in the test on NCI-H522 lung it was greater than 100 µM; in the test with OVCAR-8 ovarian it was greater than 100 µM; in the test with PC-3 prostate, greater than 100 µM; with SK-MEL-2 melanoma it was greater than 30.1 µM. For the same compound, the TGI in the test with SK-MEL-28 melanoma, in the test on SK-MEL-5 melanoma, with SN12C renal and in the test with SR leukemia was greater than 100 µM throughout.

For `Nc1nc(Br)nc2c1ncn2C1CC(O)C(CO)O1` (stereo not given), the GI50 is 34.2 µM in the test on 786-0 renal; greater than 93.3 µM with HS 578T breast; 0.698 µM in the test on NCI-H522 lung; 0.18 µM in the test on OVCAR-8 ovarian; greater than 20.1 µM with PC-3 prostate; greater than 100 µM in the test on SK-MEL-2 melanoma. Moreover, the GI50 with SK-MEL-28 melanoma was greater than 100 µM; in the test on SK-MEL-5 melanoma, 29.3 µM; with SN12C renal, 0.744 µM; in the test with SR leukemia, 3.13 µM. Besides, the TGI with 786-0 renal, in the test with HS 578T breast, in the test with NCI-H522 lung, in the test on OVCAR-8 ovarian, with PC-3 prostate and with SK-MEL-2 melanoma was greater than 100 µM in each case. For the same compound, the TGI in the test on SK-MEL-28 melanoma is greater than 100 µM; in the test on SK-MEL-5 melanoma it was greater than 100 µM; in the test with SN12C renal, greater than 100 µM; in the test with SR leukemia, greater than 22.4 µM.

As for `CCN(CC)CCOc1ccc(/C(=C(\C)c2ccc(F)c(OC)c2)c2ccc(Cl)cc2)cc1`, the GI50 was 2.7 µM with 786-0 renal; 2.42 µM in the test on HS 578T breast; 2.73 µM in the test with NCI-H522 lung; 2.58 µM in the test with OVCAR-8 ovarian; 2.11 µM in the test with PC-3 prostate; 2.8 µM in the test on SK-MEL-2 melanoma. The GI50 in the test with SK-MEL-28 melanoma is 2.44 µM; in the test on SK-MEL-5 melanoma it was 2.81 µM; in the test with SN12C renal, 2.38 µM; in the test on SR leukemia it was 2.01 µM. Besides, the TGI in the test with 786-0 renal amounted to 5.11 µM; in the test on HS 578T breast, 5.84 µM; with NCI-H522 lung, 5.79 µM; in the test on OVCAR-8 ovarian it was 5.37 µM; in the test with PC-3 prostate, 4.62 µM; in the test with SK-MEL-2 melanoma, 5.51 µM. Besides, the TGI in the test on SK-MEL-28 melanoma stood at 4.71 µM; in the test on SK-MEL-5 melanoma it was 5.21 µM; with SN12C renal, 4.64 µM; in the test with SR leukemia it was 6.91 µM.
